# According to US10253007B2, “Taxanes compounds, preparation method therefor, and uses thereof” (Jiangsu Tasly Diyi Pharmaceutical Co., Ltd., priority 2013, dated 2019):
# Where two headings read alike, the source gives them in different places.
# Tests used:
# [1] = test system: breast cancer cell line MCF-7; assay: IC50 values on breast cancer cell line MCF-7; format: cell-based; settings: Homo sapiens, MCF7, 72 h, read-out: MCF-7(IC50, nM)
# Procedure, shortened: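 MCF-7 human breast cancer cells exposed to compounds for 72 h, with paclitaxel as positive control. IC50 from three independent repeats with replicate wells.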
# [2] = In vivo oral bioavailability assay (pharmacokinetics); design: species or system S.D. rats; settings: rat; for AUC(0-t): 0-24 hours; for MRT inf: read-out: MRT0-∞
# Excerpt: 3. In Vivo Oral Bioavailability Assay
# The compound PCMI-31 was synthesized and detected according to the methods provided in the present invention. The internal standard, paclitaxel, was purchased from China's National Institute for the Control of Pharmaceutical and Biological Products (NICPBP). Chromatography-grade acetonitrile was purchased from Sigma-Aldrich Inc. Tween 80 and ethyl acetate were purchased from Aladdin reagent Inc. Male S.D. rats were purchased from Beijing Weitonglihua Inc. and raised in animal house for two weeks.
# 200 mg of PCMI-31 was dissolved in 4 ml of a mixed solution of Tween 80 and anhydrous ethanol (1:1) to prepare a stock solution at 50 mg/ml and normal saline was added to adjust to a suitable concentration. 12 male S.D. rats (about 300 g of body weight) were taken and divided into two groups after overnight fasting. One group was treated with intravenous injection (5 mg/kg) and the other group was treated orally (60 mg/kg). Blood was sampled in the intravenous group at 0th min, 5th min, 10th min, 20th min, 40th min, 1st h, 2nd h, 4th h, 6th h, 8th h, 12th h, 24th h, while the oral group at 5th min, 15th min, 30th min, 45th min, 1st h, 2nd h, 4th h, 6th h, 8th h, 12th h, 24th h. After 10 min centrifugation of plasma at 4500 rpm, the upper serum was taken and transferred to the corresponding EP tube, placed in a −40° C. freezer for assay.
# Agilent 1100 series configuration: Agilent G1313A HPLC autosampler device, 150 mm×2.1 mm C18 Thermo column (particle size 3 μm) reversed-phase column, detection wavelength at 230 nm, column temperature at 30° C., mobile phase of acetonitrile/water (7:3), a flow rate at 0.2 ml/min, injection volume of 20 μl. The mass spectrometry (MS) combined was Thermo Finnigan TSQ Quantum triple quadrupole configurated with electrospray ionization (ESI) in the positive ion mode. The parameters of MS analysis were as follows: spray chamber voltage, 4.0 kv; heated capillary temperature, 350° C.; protective gas (nitrogen); 20 psi; auxiliary gas (nitrogen): 5 psi; collision gas (argon); pressure: 1.5 mmTorr.; Collision energy: CA 17 eV; FA and IFA were 19 eV: IS was 15 eV.
# Paclitaxel was selected as an internal standard with a retention time of 3.07 min. Retention time of PCMI-31 was 4.21 min. MS detection condition to PCMI-31 was set as follows: 915→634 m/z; paclitaxel as an internal standard. Detection conditions: 876→308m/z. The concentration range of the standard curve of PCMI-31 was 5-10,000 ng/ml (γ^2>0.99) and the minimum detection limit was 5 ng/ml.
# 100 μL of plasma samples were taken, into which 100 μL of the internal standard (paclitaxel, 500 ng/ml acetonitrile solution) was added, followed by addition of 3 ml of ethyl acetate after well homogenized via vortex, after 5 min shaking, centrifuging for 8 min at a rotating speed of 4500 rpm. The supernatant was transferred to a clean EP tube with nitrogen to blow to dry under heating condition. After reconstitution with 120 μl mobile phase (CH3CN/H2O=7:3), the solution was centrifuged at 12,000 rpm for 3 min, 100 μl of supernatant was taken and transferred to an autosampler vial. After LC-MS/MS detection, statistical data and pharmacokinetic parameters were processed by Xcallbur® (version 1.3) software (Thermo Finnigan).
# [3] = male, S.D., plasma, intravenous administration 5 mg/kg
# [4] = male, S.D., plasma, oral administration 60 mg/kg
smiles,measurement,setting,value
CO[C@H]1C(=O)[C@]2(C)[C@@H](OC(=O)N(C)C)C[C@H]3OC[C@@]3(OC(C)=O)[C@H]2[C@H](OC(=O)c2ccccc2)[C@]2(O)C[C@H](OC(=O)[C@H](O)[C@@H](NC(=O)OC(C)(C)C)c3ccccc3)C(C)=C1C2(C)C [PCMI-31],IC50,[1],9.63 ± 0.12 nM
same,half-life,"[2]; male, S.D., plasma, other: oral or intravenous administration, generally, oral or intravenous administration, read-out: half-life (converted)",~3 h
same,AUC(0-t),"[2]; male, S.D., plasma, intravenous 5 mg/kg",3310 ± 1330 ng·h/mL
same,AUC(0-inf),[2]; [3],3320 ± 1330 ng·h/mL
same,Cmax,[2]; [3],7990 ± 3470 ng/mL
same,Tmax,[2]; [3],0 h
same,MRT inf,[2]; [3],2.58 ± 0.87 h
same,half-life,"[2]; male, S.D., plasma, intravenous administration 5 mg/kg, read-out: t1/2 (converted)",3.21 ± 0.53 h
same,AUC(0-t),"[2]; male, S.D., plasma, oral 60 mg/kg",4250 ± 2480 ng·h/mL
same,AUC(0-inf),[2]; [4],4270 ± 2490 ng·h/mL
same,Cmax,[2]; [4],922 ± 561 ng/mL
same,Tmax,[2]; [4],0.8 ± 0.2 h
same,MRT inf,[2]; [4],4.33 ± 0.74 h
same,half-life,"[2]; male, S.D., plasma, oral administration 60 mg/kg, read-out: t1/2 (converted)",2.97 ± 0.55 h
same,bioavailability,"[2]; male, S.D., plasma, oral, 60 mg/kg, oral 60 mg/kg vs intravenous 5 mg/kg, read-out: F, absolute oral bioavailability",10.7%
same,"F, absolute oral bioavailability",[2]; oral 60 mg/kg vs intravenous 5 mg/kg,10.71%
